For the assay, the system named is WGA (wheat germ lectin). Put plainly: Bonding of reactive compound with WGA, analysed by elution from the size-excluding first dimension column. The class given is binding. The following applies: 50 mM phosphoric acid buffer pH 6.8/0.8% NaCl, 25° C. As for the experimental part: FIGS. 8A and 8B show the results of the analysis of the components eluted in the first dimension column in the example shown in FIG. 5. […] The sample used consisted of WGA (1 mg/mL) for the target compound or protein, and p-nitrophenyl-di-N-acetyl-β-chitobioside (0.1 mg/mL) for the reactive compounds. For the first dimension mobile phase, 50 mM phosphoric acid buffer (pH 6.8)/0.8% NaCl solution was used, which was fed at the rate of 0.05 mL/minute. For the first dimension column 10a, a silica-based size-excluding DIOL column (product of Shimadzu Corporation) of 150 mm in length and 2 mm in internal diameter was used, while setting the column oven temperature at 25° C. In the measurements that produced the chromatogram shown in FIG. 8B, 30 μL of WGA or protein was suctioned by the sample injection nozzle 32a, and then 5 μL of p-nitrophenyl-di-N-acetyl-β-chitobioside was suctioned, followed by the injection of the sample from the sample injection nozzle 32a into the sample injection port 8. In FIGS. 8A and 8B, the peaks indicated by the broken lines are the peaks obtained when p-nitrophenyl-di-N-acetyl-β-chitobioside alone was injected into the sample injection port. The peaks of p-nitrophenyl-di-N-acetyl-β-chitobioside appear in different locations in FIGS. 8A and Bbecause the scale on the horizontal axis differs, but the retention time is identical in both graphs.

For the molecule `CC(=O)N[C@H]1[C@H](Oc2ccc([N+](=O)[O-])cc2)O[C@H](CO)[C@@H](O[C@@H]2O[C@H](CO)[C@@H](O)[C@H](O)[C@H]2NC(C)=O)[C@@H]1O` [p-nitrophenyl-di-N-acetyl-β-chitobioside], the “bonding state with WGA judged from elution time (FIG. 8B)” value (reactive compound (5 μL) injected first, then WGA (30 μL), separately, reaction within the size-excluding column) is listed as “shifted to the location of the elution time for WGA”. Besides, the “bonding state with WGA judged from elution time (FIG. 8A)” value (target and reactive compound mixed beforehand and injected as a reaction solution, WGA 1 mg/mL, compound 0.1 mg/mL) is listed as “has been dissociated from WGA”.

Source of the values: patent US20070178581A1, “Screening method and apparatus for identifying a reactive compound bonding with a target compound” (SHIMADZU CORPORATION, priority 2006, published 2007).
